Measurements published in patent EP4786454A1, “HETEROARYL DERIVATIVE AND USE THEREOF” (priority 2023, dated 2025).

Experiments:
[1] = test system: MDR1-MDCK I cell line; test: Permeability evaluation, bidirectional transport (P-gp substrate); format: in vitro ADME; settings: 2.00 µM, 90 minutes
Protocol: (§1) The purpose of this study was to evaluate and study the P-gp substrate of the compounds in MDR1 […] cells.
(§2) Transport assay: The test sample, nadolol, and metoprolol were administered at a concentration of 2.00 µM, and digoxin was administered at a concentration of 10.0 µM. The administration was performed bidirectionally (A-B and B-A directions), with two replicates for each administration concentration. The dosing solution, receiving solution, and transport buffer were pre-incubated in a 37.0 °C water bath for 30 minutes. The cell layer was rinsed twice with transport buffer. The dosing solution and receiving solution were added to the corresponding wells of the cell plate, respectively (75.0 µL to each apical well and 250 µL to each basolateral well, respectively). After the addition of samples, the cell plate was incubated in an incubator at 37.0°C, 5.0% CO2 and saturated humidity for 90 minutes. The initial dosing solution was used as the T0 sample. After 90 minutes of incubation, samples were collected from each well and labeled as A-B receiver, B-A receiver, A-B donor, and B-A donor, respectively. After the sample collection, all samples were mixed with an appropriate volume of transport buffer and stop solution. All samples were vortexed, and then centrifuged at 20.0 °C and 3220 × g for 10 minutes. An appropriate volume of the supernatant was transferred to a sample analysis plate. After sealing the plate, the samples were stored at 2.0 to 8.0 °C if not analyzed immediately. Analysis was performed using LC-MS/MS.
(§3) Cell membrane integrity assay: After the transport assay, the integrity of the MDR1-MDCK II cell layer was assayed by the Lucifer Yellow Rejection Assay. The remaining solution in the apical and basolateral wells was removed. 75.0 µL of transport buffer containing 100 µM Lucifer Yellow was added to the apical well, and 250 µL of transport buffer was added to the basolateral well, respectively. The cell plate was incubated in a cell culture incubator at 37 °C, 5% CO2 and saturated humidity for 30 minutes. Then, 20.0 µL of sample was taken from the apical end and mixed with 60.0 µL of transport buffer, and 80.0 µL of sample was taken from the basolateral end. The relative fluorescence unit (RFU) was measured at 425/528 nm (excitation/emission) using a microplate reader.
(§4) In this study, the sample analysis of the compounds and control compounds of nadolol, metoprolol, and digoxin was performed using LC-MS/MS. The retention time of the analytes and internal standards, chromatogram acquisition, and chromatogram integration were processed using the software Analyst (Sciex, Framingham, MA, USA). […] Semi-quantitative determination was performed using the ratio of the peak area of analyte to the peak area of internal standard.
(§5) The apparent permeability coefficient (Papp, cm/s), efflux ratio (ER), and recovery rate (%Solution Recovery) were calculated using the following formulas. Papp = (VR)/(Area × Time) × ([drug]receiver)/([drug]initial, donor) = (VR)/(Area × Time) × (CR)/(C0) [formula] Efflux Ratio = (Papp (B−A))/(Papp (A−B)) [formula] %Solution Recovery = (CR × VR + CD × VD)/(C0 × VD) × 100 [formula]
(§6) VR is the volume of the receiver solution (0.0750 mL for side A, and 0.250 mL for side B); Area is the surface area of the cell monolayer (0.143 cm^2); Time is the incubation time (5400 s); C0 is the initial peak area ratio of the test compound or the control compound at the donor; VD is the volume of the donor (0.0750 mL for side A, and 0.250 mL for side B); CD and CR are the peak area ratios of the test compound or the control compound at the donor and the receiver, respectively. The transmittance of Lucifer Yellow (%Lucifer Yellow) was calculated using the following formula: %Lucifer Yellow = (VBasolateral × RFUBasolateral)/(VApical × RFUApical + VBasolateral × RFUBasolateral) × 100 [formula]
(§7) RFUApical and RFUBasolateral are the relative fluorescence units of Lucifer Yellow at the apical and basolateral ends, respectively. […]

[2] = test system: P-gp (MDR1); test: as above; format: in vitro ADME; settings: dog, MDCK-MDR1; efflux ratio Papp (B-A)/Papp (A-B); read-out: HMDR1 ER
Protocol: as §1, §2, §3, §4, §5, §6, §7

Row | Structure (SMILES) | HMDR1 Papp A to B [1] | HMDR1 Papp B to A [1] | efflux ratio [2] | efflux ratio at 90 min, 2 µM [2]
1 | CC(C)(C)CC(=O)Nc1nc2c(F)cc(C#N)cn2c1C12CC(C1)C2 [Compound 5] | 12.4 10^-6 cm/s | 42.4 10^-6 cm/s | 3.41 | –
2 | CC(C)(C)CC(=O)Nc1nc2c(F)cc(C#N)cn2c1C1=CCCC1 [Compound 3] | 7.52 10^-6 cm/s | 31.2 10^-6 cm/s | 4.15 | –
3 | CC(C)(C)CC(=O)Nc1nc2c(F)cc(C#N)cn2c1-c1ccc(OC(F)(F)F)cc1 [Compound 1] | 3.64 10^-6 cm/s | 18.3 10^-6 cm/s | – | 5.04
